From ChEMBL document CHEMBL1201862, “PubChem BioAssay data set” (2004)
Activity calls are given as the source filed them.

Experiments:
[1] = target: T1, Estrogen receptor beta (Homo sapiens, UniProt Q92731);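 also: recombinant ER-beta bound to coactivator SRC1 peptide in presence of estradiol agonist; inhibitors block coactivator peptide binding and lower the FRET signal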
[2] = target: T1, Estrogen receptor beta; test: ERβ–SRC-3 coactivator interaction inhibitors, confirmation, orthogonal assay, biochemical, ELISA, streptavidin-HRP readout (AID 1060)
[3] = target: T2, Zinc finger protein mex-5 (Caenorhabditis elegans, UniProt Q9XUB2); test: MEX-5/TCR-2 RNA interaction inhibitors, dose response, biochemical, C. elegans, fluorescence polarization (AID 1960)
T2 sequence (Q9XUB2 whole entry): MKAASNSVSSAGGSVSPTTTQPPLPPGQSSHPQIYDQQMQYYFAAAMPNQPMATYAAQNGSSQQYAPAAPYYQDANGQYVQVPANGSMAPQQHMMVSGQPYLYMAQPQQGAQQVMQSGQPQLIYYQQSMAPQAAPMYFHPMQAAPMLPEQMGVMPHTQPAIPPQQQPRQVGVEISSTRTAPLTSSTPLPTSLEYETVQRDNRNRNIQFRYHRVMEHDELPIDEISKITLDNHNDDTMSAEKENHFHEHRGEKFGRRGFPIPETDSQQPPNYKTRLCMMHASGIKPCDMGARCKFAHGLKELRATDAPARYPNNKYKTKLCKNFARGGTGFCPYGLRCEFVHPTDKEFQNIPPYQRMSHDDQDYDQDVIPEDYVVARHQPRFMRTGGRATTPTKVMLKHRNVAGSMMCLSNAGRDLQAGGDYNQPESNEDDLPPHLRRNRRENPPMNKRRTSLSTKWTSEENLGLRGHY

[4] = target: T3, Insulin-degrading enzyme (Homo sapiens, UniProt P14735); test: Dose Response: Fluorescence polarization-based cell-based high throughput dose response assay for inhibitors of insulin-degrading enzyme (IDE). [Related pubchem assays: 434962 (Primary screen (IDE inhibitors in singlicate)), 449730 (Counterscreen (Cytotoxicity in triplicate)), 435028 (Confirmation (IDE inhibitors in triplicate)), 434984 (Summary …; assay type: functional
T3 sequence (P14735 whole entry): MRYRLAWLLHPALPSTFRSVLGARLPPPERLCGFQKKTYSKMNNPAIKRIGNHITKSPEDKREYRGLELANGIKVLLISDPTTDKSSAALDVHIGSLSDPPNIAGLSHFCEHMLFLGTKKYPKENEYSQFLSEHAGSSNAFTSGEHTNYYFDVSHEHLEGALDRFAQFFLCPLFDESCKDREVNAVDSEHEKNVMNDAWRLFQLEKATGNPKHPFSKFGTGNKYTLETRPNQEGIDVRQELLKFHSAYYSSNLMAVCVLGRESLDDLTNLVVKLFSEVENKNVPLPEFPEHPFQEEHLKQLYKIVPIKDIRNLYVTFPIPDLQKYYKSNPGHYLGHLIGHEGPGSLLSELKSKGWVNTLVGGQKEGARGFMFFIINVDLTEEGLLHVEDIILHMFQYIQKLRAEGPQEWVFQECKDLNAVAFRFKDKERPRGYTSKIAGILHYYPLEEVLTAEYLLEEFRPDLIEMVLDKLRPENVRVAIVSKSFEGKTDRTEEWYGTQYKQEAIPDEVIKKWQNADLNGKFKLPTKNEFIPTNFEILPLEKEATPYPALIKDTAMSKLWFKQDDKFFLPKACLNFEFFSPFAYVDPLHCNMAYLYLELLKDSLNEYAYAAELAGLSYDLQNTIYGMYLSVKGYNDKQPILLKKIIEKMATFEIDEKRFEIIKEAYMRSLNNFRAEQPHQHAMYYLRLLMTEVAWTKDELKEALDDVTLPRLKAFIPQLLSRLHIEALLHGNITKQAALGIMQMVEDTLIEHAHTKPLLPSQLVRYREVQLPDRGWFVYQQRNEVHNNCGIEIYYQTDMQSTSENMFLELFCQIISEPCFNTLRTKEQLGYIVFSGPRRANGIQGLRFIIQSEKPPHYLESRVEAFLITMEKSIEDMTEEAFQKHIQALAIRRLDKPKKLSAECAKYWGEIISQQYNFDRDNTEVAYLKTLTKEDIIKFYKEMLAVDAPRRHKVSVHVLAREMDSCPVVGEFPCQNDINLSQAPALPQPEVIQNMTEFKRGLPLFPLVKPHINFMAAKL

[5] = Counterscreen for IDE inhibitors: Luminescence-based cell-based high throughput dose response assay to identify compounds that are cytotoxic to HEK cells. [Related pubchem assays: 434962 (Primary screen (IDE inhibitors in singlicate)), 449730 (Counterscreen (Cytotoxicity in triplicate)), 435028 (Confirmation (IDE inhibitors in triplicate)) …; assay type: functional; settings: HEK293
[6] = target: T4, RNA-binding protein pos-1 (Caenorhabditis elegans, UniProt G5EF15); test: inhibitors of POS-1/mex-3 RNA binding, dose response, biochemical, fluorescence polarization (AID 1964);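 also: purified POS-1 fused to maltose binding protein made in E. coli; potency of compounds blocking POS-1 binding to fluorescent RNA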
T4 sequence (G5EF15 whole entry): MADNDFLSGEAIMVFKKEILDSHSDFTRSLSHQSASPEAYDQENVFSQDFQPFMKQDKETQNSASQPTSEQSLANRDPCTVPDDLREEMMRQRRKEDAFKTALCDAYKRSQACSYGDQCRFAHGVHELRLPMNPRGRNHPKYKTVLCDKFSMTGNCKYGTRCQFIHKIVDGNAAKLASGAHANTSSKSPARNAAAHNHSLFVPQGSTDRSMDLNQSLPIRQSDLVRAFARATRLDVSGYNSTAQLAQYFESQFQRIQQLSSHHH

[7] = target: Nucleotide-binding oligomerization domain-containing protein 2 (Homo sapiens, UniProt Q9HC29); test: PubChem AID 2334; assay type: functional
Chain of Nucleotide-binding oligomerization domain-containing protein 2 (Q9HC29 whole entry, the tested form may be a part): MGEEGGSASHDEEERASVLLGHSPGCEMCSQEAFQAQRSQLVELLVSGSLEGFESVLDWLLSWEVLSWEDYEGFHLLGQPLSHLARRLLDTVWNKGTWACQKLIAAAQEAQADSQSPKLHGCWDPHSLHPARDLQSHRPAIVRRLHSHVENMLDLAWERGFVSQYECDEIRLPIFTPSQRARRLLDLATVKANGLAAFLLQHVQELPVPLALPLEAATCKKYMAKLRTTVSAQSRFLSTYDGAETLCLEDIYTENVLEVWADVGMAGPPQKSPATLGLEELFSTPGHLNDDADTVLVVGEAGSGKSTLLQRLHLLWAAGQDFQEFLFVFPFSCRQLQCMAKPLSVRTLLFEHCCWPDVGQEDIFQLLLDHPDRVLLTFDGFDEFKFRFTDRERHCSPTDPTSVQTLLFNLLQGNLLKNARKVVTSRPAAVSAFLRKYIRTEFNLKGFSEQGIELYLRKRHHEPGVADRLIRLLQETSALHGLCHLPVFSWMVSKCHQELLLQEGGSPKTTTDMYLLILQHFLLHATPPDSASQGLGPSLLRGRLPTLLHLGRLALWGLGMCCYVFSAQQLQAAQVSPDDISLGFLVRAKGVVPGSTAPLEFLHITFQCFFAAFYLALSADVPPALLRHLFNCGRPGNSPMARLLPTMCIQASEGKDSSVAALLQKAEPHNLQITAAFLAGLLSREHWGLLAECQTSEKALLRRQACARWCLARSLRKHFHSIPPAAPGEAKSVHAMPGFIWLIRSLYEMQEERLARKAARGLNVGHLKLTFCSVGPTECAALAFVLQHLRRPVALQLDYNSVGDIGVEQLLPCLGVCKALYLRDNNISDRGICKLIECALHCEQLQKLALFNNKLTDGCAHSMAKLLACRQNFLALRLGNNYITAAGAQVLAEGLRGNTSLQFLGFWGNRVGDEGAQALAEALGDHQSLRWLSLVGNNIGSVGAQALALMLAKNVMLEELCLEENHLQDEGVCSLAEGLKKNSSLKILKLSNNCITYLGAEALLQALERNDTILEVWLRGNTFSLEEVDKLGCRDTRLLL

[8] = system: HEK293; test: cells; settings: Homo sapiens;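 also: cells exposed to compound for 14 hours overnight before viability readout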
[9] = target: Tumor necrosis factor (Homo sapiens, UniProt P01375); test: TNFa-triggered NF-kB activation inhibitors, SAR follow-up, cell-based, revised (AID 2337); assay type: functional
Chain of Tumor necrosis factor (P01375 whole entry, the tested form may be a part): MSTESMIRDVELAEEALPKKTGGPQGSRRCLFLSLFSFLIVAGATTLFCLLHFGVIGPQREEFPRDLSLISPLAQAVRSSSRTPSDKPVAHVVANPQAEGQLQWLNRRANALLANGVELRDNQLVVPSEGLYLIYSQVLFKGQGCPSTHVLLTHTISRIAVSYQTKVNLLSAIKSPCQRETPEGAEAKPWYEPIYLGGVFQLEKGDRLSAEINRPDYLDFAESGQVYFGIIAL

[10] = target: T5, Nucleotide-binding oligomerization domain-containing protein 1 (Homo sapiens, UniProt Q9Y239); test: NOD1 signaling inhibitors, SAR follow-up, revised (AID 2333); assay type: functional
T5 sequence (Q9Y239 whole entry): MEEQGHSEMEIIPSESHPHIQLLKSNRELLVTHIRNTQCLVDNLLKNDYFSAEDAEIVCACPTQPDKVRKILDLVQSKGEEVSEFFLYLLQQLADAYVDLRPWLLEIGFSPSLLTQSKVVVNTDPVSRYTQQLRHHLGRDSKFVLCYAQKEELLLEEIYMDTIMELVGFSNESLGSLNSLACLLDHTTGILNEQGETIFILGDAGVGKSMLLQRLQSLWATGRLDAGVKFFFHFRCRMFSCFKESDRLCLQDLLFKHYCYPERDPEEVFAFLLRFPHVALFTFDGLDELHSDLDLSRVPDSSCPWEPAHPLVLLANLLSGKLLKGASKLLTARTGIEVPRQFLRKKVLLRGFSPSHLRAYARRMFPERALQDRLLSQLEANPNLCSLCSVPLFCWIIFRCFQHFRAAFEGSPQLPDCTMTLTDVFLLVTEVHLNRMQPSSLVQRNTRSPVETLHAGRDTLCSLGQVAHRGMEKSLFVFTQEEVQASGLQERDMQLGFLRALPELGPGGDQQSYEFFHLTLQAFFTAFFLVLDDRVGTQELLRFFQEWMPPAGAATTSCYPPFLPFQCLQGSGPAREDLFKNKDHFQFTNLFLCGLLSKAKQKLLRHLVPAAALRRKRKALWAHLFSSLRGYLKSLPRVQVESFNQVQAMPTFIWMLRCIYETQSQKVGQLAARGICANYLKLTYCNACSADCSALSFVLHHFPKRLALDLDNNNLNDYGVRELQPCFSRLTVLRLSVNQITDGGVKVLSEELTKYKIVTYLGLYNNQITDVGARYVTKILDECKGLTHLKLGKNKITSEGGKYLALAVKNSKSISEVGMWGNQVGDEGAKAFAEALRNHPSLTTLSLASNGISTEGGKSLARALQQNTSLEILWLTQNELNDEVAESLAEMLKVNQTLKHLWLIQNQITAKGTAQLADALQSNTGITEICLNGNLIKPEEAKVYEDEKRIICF

[11] = target: T6, SUMO-activating enzyme (Homo sapiens, UniProt Q9UBT2); test: inhibitors of in vitro SUMOylation cascade, primary screen, biochemical, HTRF, uHTS (AID 2006); assay type: protein-complex assay
T6 sequence (Q9UBE0 whole entry): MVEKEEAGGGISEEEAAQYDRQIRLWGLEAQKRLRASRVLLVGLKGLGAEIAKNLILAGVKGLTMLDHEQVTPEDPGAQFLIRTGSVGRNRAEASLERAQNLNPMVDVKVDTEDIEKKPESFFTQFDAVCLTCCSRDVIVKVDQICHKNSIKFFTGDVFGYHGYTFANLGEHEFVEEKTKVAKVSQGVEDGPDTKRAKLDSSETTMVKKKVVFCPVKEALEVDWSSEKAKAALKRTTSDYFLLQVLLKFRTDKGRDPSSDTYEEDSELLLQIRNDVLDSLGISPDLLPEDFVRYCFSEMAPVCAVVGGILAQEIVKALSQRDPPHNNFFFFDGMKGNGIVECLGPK
T6 sequence (Q9UBT2 whole entry): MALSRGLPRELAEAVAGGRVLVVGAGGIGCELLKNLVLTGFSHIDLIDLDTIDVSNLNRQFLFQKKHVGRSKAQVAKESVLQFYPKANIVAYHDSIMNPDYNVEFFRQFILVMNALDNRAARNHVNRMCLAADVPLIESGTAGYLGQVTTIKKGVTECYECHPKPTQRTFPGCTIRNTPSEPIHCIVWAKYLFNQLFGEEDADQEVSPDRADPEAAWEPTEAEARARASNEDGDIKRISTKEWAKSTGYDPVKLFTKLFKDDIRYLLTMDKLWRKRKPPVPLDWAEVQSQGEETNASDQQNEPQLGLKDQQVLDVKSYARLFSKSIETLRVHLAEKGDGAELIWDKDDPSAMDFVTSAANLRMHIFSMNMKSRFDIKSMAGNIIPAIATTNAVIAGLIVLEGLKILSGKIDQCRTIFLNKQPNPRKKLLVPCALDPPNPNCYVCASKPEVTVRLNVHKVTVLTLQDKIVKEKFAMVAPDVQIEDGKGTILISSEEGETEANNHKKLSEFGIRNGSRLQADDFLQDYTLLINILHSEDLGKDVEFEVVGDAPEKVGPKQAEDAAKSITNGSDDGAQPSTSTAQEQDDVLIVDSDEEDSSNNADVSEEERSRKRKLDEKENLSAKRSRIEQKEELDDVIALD

[12] = target: T6, SUMO-activating enzyme; test: SUMOylation inhibitor hit validation, confirmation, SUMOylation inhibitor project, biochemical, AlphaScreen (AID 2018); assay type: functional
[13] = M. tuberculosis H37Rv growth inhibitors, H37Rv strain (AID 1626); assay type: functional
[14] = target: Neurotensin receptor type 1 (Homo sapiens, UniProt P30989); assay type: functional;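 also: Image-based confirmatory dose-response assay measuring agonist activity at NTR1; NTR1-expressing U2OS osteosarcoma cells imaged for beta-arrestin GFP spot formation; agonist potency where compounds increase beta-arrestin recruitment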
Chain of Neurotensin receptor type 1 (P30989 whole entry): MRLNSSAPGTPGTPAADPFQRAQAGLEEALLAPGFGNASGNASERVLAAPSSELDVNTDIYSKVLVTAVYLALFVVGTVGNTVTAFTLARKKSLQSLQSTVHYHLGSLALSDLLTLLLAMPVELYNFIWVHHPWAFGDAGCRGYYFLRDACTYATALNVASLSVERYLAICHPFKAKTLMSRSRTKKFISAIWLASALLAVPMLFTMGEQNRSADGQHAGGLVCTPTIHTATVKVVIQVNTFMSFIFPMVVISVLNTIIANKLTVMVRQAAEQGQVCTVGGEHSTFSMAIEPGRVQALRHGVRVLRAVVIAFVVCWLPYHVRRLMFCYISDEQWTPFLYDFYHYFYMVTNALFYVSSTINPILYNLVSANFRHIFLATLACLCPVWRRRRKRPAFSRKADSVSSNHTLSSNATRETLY

[15] = Luminescence Cell-Based Dose Retest to Confirm Inhibitors of Cancer Stem Cells. [Related pubchem assays (depositor defined):AID2717, AID2721]; assay type: functional; settings: Homo sapiens
[16] = inhibitors of intracellular T. cruzi replication, confirmation, NIH3T3 host cells, beta-gal luminescence (AID 2044); assay type: functional, cell-based;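 also: intracellular parasites grown in NIH/3T3 mouse fibroblasts as host cells; luminescent beta-galactosidase reporter signal from transgenic T. cruzi replicating inside host cells; inhibitors lower the luminescence signal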
[17] = cytotoxicity toward NIH3T3 fibroblasts, dose response, counter-screen, cell-based, ATP luminescence, mouse fibroblasts (AID 2010); assay type: functional;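 also: cells exposed to compound for about 90 hours before reading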
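For AC50 in this document: cells exposed to compound for roughly 70 hours or longer before luminescence read.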

T1 sequence (Q92731 whole entry): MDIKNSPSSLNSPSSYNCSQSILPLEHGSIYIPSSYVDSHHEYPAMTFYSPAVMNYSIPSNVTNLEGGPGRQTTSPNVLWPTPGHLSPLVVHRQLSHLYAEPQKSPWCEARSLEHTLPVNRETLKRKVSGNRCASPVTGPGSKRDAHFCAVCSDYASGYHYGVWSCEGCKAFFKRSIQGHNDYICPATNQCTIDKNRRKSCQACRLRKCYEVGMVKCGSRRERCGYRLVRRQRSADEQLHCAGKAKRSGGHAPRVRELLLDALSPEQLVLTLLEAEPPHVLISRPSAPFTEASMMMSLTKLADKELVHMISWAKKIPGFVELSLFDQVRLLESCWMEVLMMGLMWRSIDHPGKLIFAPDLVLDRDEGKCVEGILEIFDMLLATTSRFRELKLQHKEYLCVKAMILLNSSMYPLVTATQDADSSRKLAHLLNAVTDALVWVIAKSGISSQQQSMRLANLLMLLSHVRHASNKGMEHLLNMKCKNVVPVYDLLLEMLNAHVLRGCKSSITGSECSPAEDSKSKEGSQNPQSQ

In the case of `CNC(=O)c1c(NC(=O)c2nc3ccccc3s2)sc2c1CCC2`, the IC50 [1] is reported as > 50 µM (not active) and the IC50 [2] is reported as < 23 nM (not active).
For `O=C1CCC/C(=N/NC(=O)c2sc3ccccc3c2Cl)C1`, the EC50 [3] was 20.5 µM (active), the IC50 [4] was 26.3 µM (not active) and the IC50 [5] was > 55.7 µM (not active). The EC50 [6] was 22 µM (active).
With `COC(=O)c1c(NC(=O)c2cccc(F)c2)sc2c1CCC(C)C2` (configuration not stated) the IC50 [7] was > 20 µM (inactive), the IC50 [8] was > 20 µM (inactive) and the IC50 [9] was > 20 µM (inactive). The IC50 [10] was > 20 µM (inactive).
In the case of `O=C(O)c1ccc2c(c1)C1C(Cl)C(Sc3ccccc3[N+](=O)[O-])CC1C(c1cccc([N+](=O)[O-])c1)N2` (configuration not stated), the IC50 [11] is reported as 23.6 µM (active) and the IC50 [12] is reported as 2.26 µM (active).
With `O=C(CCc1nc(-c2cccs2)no1)Nc1cnc2ccccc2c1` the IC50 [13] was > 100 µM (active).
In the case of `Oc1ccc(-c2cc(-c3ccc(O)cc3)nc(-c3ccccc3)n2)cc1`, the EC50 [14] is reported as 19.4 µM (active), the AC50 [15] is reported as 1.81 µM (active) and the EC50 [16] is reported as 3.86 µM (active). For the same molecule, the EC50 [17] was > 60 µM (not active).
